PubChem BioAssay (NCI)
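Growth conditions: 96-well plates. Treatment: test compound, 48 hours, 5 concentrations. Analysis: linear interpolation between bracketing concentrations; unreached endpoints set to highest concentration. Here, GI50 denotes the concentration required for 50% inhibition of growth. Definition used: TGI = concentration required for complete inhibition of growth.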

Columns and labels:
Assay in all cases: NCI anticancer screen, dose series, 48 h
786-0 renal = tested on: 786-0 renal
A498 renal = tested on: A498 renal
A549 NSCLC = tested on: A549 NSCLC
ACHN renal = tested on: ACHN renal
BT-549 breast = tested on: BT-549 breast
CAKI-1 renal = tested on: CAKI-1 renal
CCRF-CEM leukemia = tested on: CCRF-CEM leukemia
COLO 205 colon = tested on: COLO 205 colon
DU-145 prostate = tested on: DU-145 prostate
EKVX NSCLC = tested on: EKVX NSCLC
HCC-2998 colon = tested on: HCC-2998 colon
HCT-116 colon = tested on: HCT-116 colon
HCT-15 colon = tested on: HCT-15 colon
HL-60(TB) leukemia = tested on: HL-60(TB) leukemia
HOP-62 NSCLC = tested on: HOP-62 NSCLC
HS 578T breast = tested on: HS 578T breast
HT29 colon = tested on: HT29 colon
IGROV1 ovarian = tested on: IGROV1 ovarian
K-562 leukemia = tested on: K-562 leukemia
KM12 colon = tested on: KM12 colon
LOX IMVI melanoma = tested on: LOX IMVI melanoma
M14 melanoma = tested on: M14 melanoma
MALME-3M melanoma = tested on: MALME-3M melanoma
MCF7 breast = tested on: MCF7 breast
MDA-MB-231 breast = tested on: MDA-MB-231 breast
MDA-MB-435 = tested on: MDA-MB-435
MOLT-4 leukemia = tested on: MOLT-4 leukemia
NCI-H226 lung = tested on: NCI-H226 lung
NCI-H23 lung = tested on: NCI-H23 lung
NCI-H460 lung = tested on: NCI-H460 lung
NCI-H522 lung = tested on: NCI-H522 lung
NCI/ADR-RES ovarian = tested on: NCI/ADR-RES ovarian
OVCAR-3 ovarian = tested on: OVCAR-3 ovarian
OVCAR-4 ovarian = tested on: OVCAR-4 ovarian
OVCAR-5 ovarian = tested on: OVCAR-5 ovarian
OVCAR-8 ovarian = tested on: OVCAR-8 ovarian
PC-3 prostate = tested on: PC-3 prostate
RPMI-8226 leukemia = tested on: RPMI-8226 leukemia
RXF 393 renal = tested on: RXF 393 renal
SF-268 CNS = tested on: SF-268 CNS
SF-295 CNS = tested on: SF-295 CNS
SF-539 CNS = tested on: SF-539 CNS
SK-MEL-2 melanoma = tested on: SK-MEL-2 melanoma
SK-MEL-28 melanoma = tested on: SK-MEL-28 melanoma
SK-MEL-5 melanoma = tested on: SK-MEL-5 melanoma
SK-OV-3 ovarian = tested on: SK-OV-3 ovarian
SN12C renal = tested on: SN12C renal
SNB-19 CNS = tested on: SNB-19 CNS
SNB-75 CNS = tested on: SNB-75 CNS
SR leukemia = tested on: SR leukemia
SW-620 colon = tested on: SW-620 colon
TK-10 renal = tested on: TK-10 renal
U251 CNS = tested on: U251 CNS
UACC-257 melanoma = tested on: UACC-257 melanoma
UACC-62 melanoma = tested on: UACC-62 melanoma
UO-31 renal = tested on: UO-31 renal
T-47D breast = tested on: T-47D breast

## O=c1cc(-c2ccccc2)[nH]c2c1CCCC2
786-0 renal
  GI50: 14.7 µM
  TGI: > 100 µM
A498 renal
  GI50: 1.44 µM
  TGI: 7.83 µM
A549 NSCLC
  GI50: 4.55 µM
  TGI: > 100 µM
ACHN renal
  GI50: 11.6 µM
  TGI: > 100 µM
BT-549 breast
  GI50: 21.5 µM
  TGI: > 100 µM
CAKI-1 renal
  GI50: 0.944 µM
  TGI: > 100 µM
CCRF-CEM leukemia
  GI50: 3.4 µM
  TGI: > 100 µM
COLO 205 colon
  GI50: 1.99 µM
  TGI: 6.42 µM
DU-145 prostate
  GI50: 2.47 µM
  TGI: 8.35 µM
EKVX NSCLC
  GI50: 5.6 µM
  TGI: > 100 µM
HCC-2998 colon
  GI50: 2.5 µM
  TGI: 31.9 µM
HCT-116 colon
  GI50: 3.34 µM
  TGI: > 100 µM
HCT-15 colon
  GI50: 2.01 µM
  TGI: > 100 µM
HL-60(TB) leukemia
  GI50: 1.62 µM
  TGI: > 100 µM
HOP-62 NSCLC
  GI50: 4.51 µM
  TGI: > 100 µM
HS 578T breast
  GI50: 2.01 µM
  TGI: 8.56 µM
HT29 colon
  GI50: 2 µM
  TGI: > 100 µM
IGROV1 ovarian
  GI50: 3.59 µM
  TGI: > 100 µM
K-562 leukemia
  GI50: 0.85 µM
  TGI: > 100 µM
KM12 colon
  GI50: 0.723 µM
  TGI: > 100 µM
LOX IMVI melanoma
  GI50: 5.88 µM
  TGI: > 100 µM
M14 melanoma
  GI50: 1.5 µM
  TGI: 5.68 µM
MALME-3M melanoma
  GI50: 3.48 µM
  TGI: > 100 µM
MCF7 breast
  GI50: 1.14 µM
  TGI: > 100 µM
MDA-MB-231 breast
  GI50: 6.67 µM
  TGI: > 100 µM
MDA-MB-435
  GI50: 0.29 µM
  TGI: 0.992 µM
MOLT-4 leukemia
  GI50: 6.16 µM
  TGI: > 100 µM
NCI-H226 lung
  GI50: 3.08 µM
  TGI: 65.6 µM
NCI-H23 lung
  GI50: 3.39 µM
  TGI: > 100 µM
NCI-H460 lung
  GI50: 3.01 µM
  TGI: > 100 µM
NCI-H522 lung
  GI50: 2 µM
  TGI: 6.71 µM
NCI/ADR-RES ovarian
  GI50: 1.69 µM
  TGI: 5.73 µM
OVCAR-3 ovarian
  GI50: 1.81 µM
  TGI: 5.02 µM
OVCAR-4 ovarian
  GI50: 9.08 µM
  TGI: > 100 µM
OVCAR-5 ovarian
  GI50: 14.8 µM
  TGI: > 100 µM
OVCAR-8 ovarian
  GI50: 4.58 µM
  TGI: > 100 µM
PC-3 prostate
  GI50: 3.18 µM
  TGI: > 100 µM
RPMI-8226 leukemia
  GI50: 4.67 µM
  TGI: > 100 µM
RXF 393 renal
  GI50: 1.8 µM
  TGI: 5.53 µM
SF-268 CNS
  GI50: 7.72 µM
  TGI: > 100 µM
SF-295 CNS
  GI50: 1.43 µM
  TGI: 7.61 µM
SF-539 CNS
  GI50: 2.92 µM
  TGI: > 100 µM
SK-MEL-2 melanoma
  GI50: 4.19 µM
  TGI: > 100 µM
SK-MEL-28 melanoma
  GI50: > 100 µM
  TGI: > 100 µM
SK-MEL-5 melanoma
  GI50: 0.883 µM
  TGI: 45.4 µM
SK-OV-3 ovarian
  GI50: 5.11 µM
  TGI: > 100 µM
SN12C renal
  GI50: 13.4 µM
  TGI: > 100 µM
SNB-19 CNS
  GI50: 8.9 µM
  TGI: > 100 µM
SNB-75 CNS
  GI50: 1.8 µM
  TGI: > 100 µM
SR leukemia
  GI50: 0.835 µM
  TGI: > 100 µM
SW-620 colon
  GI50: 1.64 µM
  TGI: > 100 µM
TK-10 renal
  GI50: 70.6 µM
  TGI: > 100 µM
U251 CNS
  GI50: 4.54 µM
  TGI: > 100 µM
UACC-257 melanoma
  GI50: 67 µM
  TGI: > 100 µM
UACC-62 melanoma
  GI50: 5.91 µM
  TGI: > 100 µM
UO-31 renal
  GI50: 5.49 µM
  TGI: > 100 µM

## COc1cc2nc(N3CCC[C@H](NC4=CC(=O)c5ccccc5C4=O)C3)nc(N)c2cc1OC
A498 renal
  GI50: 11.8 µM
  TGI: 34 µM
A549 NSCLC
  GI50: 2.23 µM
  TGI: 4 µM
ACHN renal
  GI50: 1.84 µM
  TGI: 3.47 µM
CAKI-1 renal
  GI50: 1.89 µM
  TGI: 3.91 µM
CCRF-CEM leukemia
  GI50: 1.79 µM
  TGI: 5.45 µM
COLO 205 colon
  GI50: 1.91 µM
  TGI: 3.47 µM
DU-145 prostate
  GI50: 1.96 µM
  TGI: 3.58 µM
HCC-2998 colon
  GI50: 1.97 µM
  TGI: 3.5 µM
HCT-116 colon
  GI50: 1.64 µM
  TGI: 4.81 µM
HCT-15 colon
  GI50: 2.01 µM
  TGI: 4.86 µM
HL-60(TB) leukemia
  GI50: 1.94 µM
  TGI: 4.04 µM
HOP-62 NSCLC
  GI50: 2.26 µM
  TGI: 4.48 µM
HS 578T breast
  GI50: 1.97 µM
  TGI: 4.64 µM
HT29 colon
  GI50: 2.02 µM
  TGI: 4.07 µM
IGROV1 ovarian
  GI50: 2.07 µM
  TGI: 4.27 µM
K-562 leukemia
  GI50: 0.348 µM
  TGI: 1.42 µM
KM12 colon
  GI50: 1.77 µM
  TGI: 3.22 µM
MCF7 breast
  GI50: 1.61 µM
  TGI: 3.3 µM
MDA-MB-231 breast
  GI50: 1.63 µM
  TGI: 3.3 µM
MDA-MB-435
  GI50: 2.05 µM
  TGI: 4.03 µM
MOLT-4 leukemia
  GI50: 2.37 µM
  TGI: 5.9 µM
NCI-H226 lung
  GI50: 16.6 µM
  TGI: 55.6 µM
NCI-H23 lung
  GI50: 1.99 µM
  TGI: 4.13 µM
NCI-H460 lung
  GI50: 1.96 µM
  TGI: 4.01 µM
NCI-H522 lung
  GI50: 1.83 µM
  TGI: 3.58 µM
NCI/ADR-RES ovarian
  GI50: 2.34 µM
  TGI: 5.44 µM
OVCAR-3 ovarian
  GI50: 1.89 µM
  TGI: 3.43 µM
OVCAR-4 ovarian
  GI50: 1.61 µM
  TGI: 3.19 µM
OVCAR-5 ovarian
  GI50: 2.05 µM
  TGI: 4 µM
OVCAR-8 ovarian
  GI50: 2.06 µM
  TGI: 4.28 µM
PC-3 prostate
  GI50: 1.75 µM
  TGI: 3.67 µM
RPMI-8226 leukemia
  GI50: 1.98 µM
  TGI: 4.84 µM
SF-268 CNS
  GI50: 1.82 µM
  TGI: 3.61 µM
SF-295 CNS
  GI50: 1.96 µM
  TGI: 4.06 µM
SF-539 CNS
  GI50: 1.94 µM
  TGI: 3.77 µM
SK-MEL-28 melanoma
  GI50: 1.97 µM
  TGI: 3.67 µM
SK-MEL-5 melanoma
  GI50: 1.73 µM
  TGI: 3.26 µM
SK-OV-3 ovarian
  GI50: 2.22 µM
  TGI: 4.22 µM
SN12C renal
  GI50: 1.73 µM
  TGI: 3.51 µM
SNB-75 CNS
  GI50: 1.64 µM
  TGI: 3.3 µM
SR leukemia
  GI50: 0.28 µM
  TGI: 2.94 µM
SW-620 colon
  GI50: 1.5 µM
  TGI: 3.32 µM
T-47D breast
  GI50: 1.9 µM
  TGI: 3.63 µM
TK-10 renal
  GI50: 2.41 µM
  TGI: 4.12 µM
U251 CNS
  GI50: 1.65 µM
  TGI: 3.18 µM
UACC-257 melanoma
  GI50: 2.18 µM
  TGI: 3.94 µM
UACC-62 melanoma
  GI50: 2.14 µM
  TGI: 4.72 µM
UO-31 renal
  GI50: 1.49 µM
  TGI: 3.16 µM
